# From patent EP2818471A1, “Nitrogen bicyclic compounds as inhibitors for Scyl1 and Grk5” (Max-Planck-Gesellschaft zur Förderung der Wissenschaften …, priority 2013, dated 2014)
# How the values were obtained:
# beta-TC6 cells [1] = assay: Insulin HTRF assay, relative activity Ar normalized to sunitinib; assay type: cell-based; settings: Mus musculus, normalized to positive control sunitinib (5 µM = 100%), Table 10
# In short: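 beta-TC6 cells (15k/well) were seeded for 24 or 48 h, washed and exposed to test compound or sunitinib (5 µM f.c.) in induction buffer with 0.5% DMSO for 2, 3 or 4 h at 37°C. Secreted insulin in the supernatant was measured by two-antibody HTRF after 120 min at RT. Ar = (V − 0% control)/(100% control − 0% control) × 100.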
# C2C12 cells = assay: 2-NBDG glucose uptake by flow cytometry; settings: C2C12, 1 h compound treatment; Figure 10
# Procedure: Furthermore, as internal controls, samples of glucose free media, respectively glucose free media with test compound, were tested. Subsequently, cells were washed, trypsinized and harvested in ice-cold PBS before centrifuged at 1.6 x10^3 rpm at 4°C. Cells were analyzed by flow cytometry (FACS Calibur, BD Bioscience, respectively a BD Accuri® C6 Flow Cytometer).
# To investigate the impact of the Grk5 inhibitors on Glucose uptake, cells were cultured 1 h in glucose free media supplied with 100 µM 2-NBDG at 37 °C and 5 % (v/v) CO2. Furthermore, as internal controls, samples of glucose free media, respectively glucose free media with test compounds, were measured. Fluorescence was analyzed by flow cytometer (FACS Calibur, BD Bioscience, respectively a BD Accuri® C6 Flow Cytometer).
# beta-TC6 cell system = assay: Comparison of insulin release with commercially available inhibitors, mouse/rat insulin ELISA; assay type: cell-based; settings: 2 h; for effect on insulin release: concentration not given
# Procedure: Based on literature references, several commercially available inhibitors were compared with compounds according to the invention. […] Cells were cultured for 24 h before treated with the inventive compounds and control inhibitors for 2 h at 37 °C and 5 % (v/v) CO2. Insulin in the supernatant was detected by mouse/rat insulin ELISA.
# beta-TC6 cells [2] = assay: Insulin release in high glucose medium, rat/mouse insulin ELISA; assay type: cell-based; settings: Mus musculus, Beta-TC6, 2 h, high glucose (4.5 g/L) DMEM, Example 9, Figure 6, ± SEM, read-out: increase of insulin release
# Procedure: Cells were cultured overnight, washed with PBS and then treated with 5 µM of test compounds as well as non-inhibitor controls for 2 h in a high glucose (4.5 g/L) DMEM at 37°C and 5 % (v/v) CO2. Release of insulin was detected using a rat/mouse insulin ELISA.
# (§1) After incubation, the supernatant of the beta-TC6 insulinoma cells was diluted 1:20, whereas the supernatants of the RIN-T2B-5AH were diluted 1:10. The insulin release was measured with rat/mouse insulin ELISA (Merck Millipore Darmstadt, Cat. # EZRMI-13K) by following the manufacture's protocol. The enzyme activity of the horseradish peroxidase of the immobilized biotinylated antibodies was monitored spectrophotometrically by the increased absorbency at 490 nm, and corrected by the absorbency at 610 nm.
# Afterwards, the supernatant was analyzed for insulin using the rat/mouse insulin ELISA (Merck Millipore Darmstadt, Cat. # EZRMI-13K) by following the manufacture's protocol..
# Cells were treated for 2 h in a high glucose (4.5 g/L) DMEM media at 37°C and 5 % (v/v) CO2. Insulin release was analyzed using the rat/mouse insulin ELISA.
# beta-TC6 cells [3] = assay: Insulin release in low glucose medium, rat/mouse insulin ELISA; assay type: cell-based; settings: low glucose 1.125 mM (20 mg/dL), 2 h, relative to DMSO control; Example 6, Figure 5
# Procedure: as §1, with “In order to measure the insulin released upon compound treatment beta-TC6 insulinoma (mouse) and RIN-T2B-5AH (rat islet tumor subclone) cells were washed and incubated for 2 h in high (4.5 g/L) or low (1.125 g/L) glucose media at 37 °C. After” for “After”
# Hypoglycemia can cause impairment of cognitive function, motoric control or even consciousness. […] Therefore, we verified the glucose dependent insulin release in beta-TC6 cells using media with 1.125 mM (20 mg/dL) glucose. Cells were cultured for 24 h in a 96-well plate, washed with PBS and then appropriate media was replaced for 2 h at 37°C and 5 % (v/v) CO2. […] The enzyme activity of the horseradish peroxidase of the immobilized biotinylated antibodies was monitored spectrophotometrically by the increased absorbency at 490 nm, and corrected by the absorbency at 610 nm. […]
# beta-TC6 = assay: MTT cytotoxicity assay (cell viability and proliferation); assay type: cell-based, mouse; settings: beta-TC6, 72 h treatment, concentrations up to 10 µM
# Procedure: Using a MTT approach, we determined the effect on cell viability and proliferation of beta-TC6 and C2C12 cells to display potential cytotoxicity of the compounds according to the invention in vitro after a 72 h treatment.
# For MTT (3-(4,5-dimethylthiazol-2-yl)-2,5-diphenyl tetrazolium bromide) transformation, 1/5 of total volume of a 5 mg/mL MTT stock solution was added to the cells as well as control wells and incubated at 37 °C, 5 % CO2 (v/v) for 1 h. Then 1/2 of total volume of MTT-stop solution was added and plates were incubated overnight in the dark at 25 °C. The optical density (OD) was measured using a multiwell spectrophotometer at a wavelength of 570 nm.
# [4] = Mus musculus, Beta-TC6, 5µM, DMSO = 0, Table 9
structure (smiles),measurement,setting,value
"NC(=O)c1ccc(-c2cnc3ccc(Cc4ccccc4)nn23)cc1 [compound 2, 4-(6-benzylimidazo[1,2-b]pyridazin-3-yl)benzamide]",Emax,beta-TC6 cells [1],20 to 50%
same,uptake of 2-NBDG compared with negative control background,C2C12 cells,significantly increased uptake of 2-NBDG
same,activation at 5 µM,beta-TC6 cell system; [4],65.7%
"O=C1C(Cl)=C(N2C(=O)CCC2=O)C(=O)c2ccccc21 [MEK, reference compound]",activation at 10 µM,"beta-TC6 cell system; Mus musculus, Beta-TC6, 10µM, DMSO = 0, Table 9",67.3%
"CC(=O)Nc1cc(-c2cccc(C(=O)NCCO)c2)cn2c(-c3ccc(F)cc3)cnc12 [Cpd c1, reference compound]",activation at 5 µM,beta-TC6 cells [2],1.3 ± 0.3%
"CCN(CC)CCNC(=O)c1c(C)[nH]c(/C=C2\C(=O)Nc3ccc(F)cc32)c1C [Sunitinib, reference compound]",insulin release,beta-TC6 cells [3],0.77 ± 0.03
same,toxic effect,beta-TC6,toxic in lower concentrations
same,Insulin Release [%],"beta-TC6 cell system; 5µM, DMSO = 0, Table 9, listed as Sutent",93.35%
same,activation at 5 µM,beta-TC6 cell system; [4],93.3 ± 14.4%
"COc1ccc(Cl)cc1C(=O)NCCc1ccc(S(=O)(=O)NC(=O)NC2CCCCC2)cc1 [Glibenclamide, reference compound]",effect on insulin release,beta-TC6 cell system,no effect
"CCCCNC(=O)NS(=O)(=O)c1ccc(C)cc1 [Tolbutamide, reference compound]",effect on insulin release,beta-TC6 cell system,no effect
"CC(=O)Nc1ccc(-c2cnc3ccc(-c4ccc(N5CCOCC5)cc4)nn23)cc1 [compound 147, N-[4-[6-(4-morpholinophenyl)imidazo[1,2-b]pyridazin-3-yl]phenyl]acetamide]",Emax,beta-TC6 cells [1],≥ 100%
"c1nc(-c2nnc3ccc(-c4ccc(N5CCOCC5)cc4)cn23)cs1 [compound 226, 4-[4-(3-thiazol-4-yl-[1,2,4]triazolo[4,3-a]pyridin-6-yl)phenyl]morpholine]",Emax,beta-TC6 cells [1],50 to 100%
"Cc1ccccc1-c1cn2c(-c3ccc4c(c3)OCO4)cnc2cn1 [compound 305, 3-(1,3-benzodioxol-5-yl)-6-(o-tolyl)imidazo[1,2-a]pyrazine]",Emax,beta-TC6 cells [1],20 to 50%
"c1csc(-c2cnc3cnc(-c4ccsc4)cn23)c1 [compound 415, 3-(2-thienyl)-6-(3-thienyl)imidazo[1,2-a]pyrazine]",Emax,beta-TC6 cells [1],50 to 100%
"CN(C)c1ccccc1-c1cn2c(-c3cccs3)cnc2cn1 [compound 413, N,N-dimethyl-2-[3-(2-thienyl)imidazo[1,2-a]pyrazin-6-yl]aniline]",Emax,beta-TC6 cells [1],20 to 50%
"COc1cc(OC)cc(-c2cn3c(-c4cccc(O)c4)cnc3cn2)c1 [compound 371, 3-[6-(3,5-dimethoxyphenyl)imidazo[1,2-a]pyrazin-3-yl]phenol]",Emax,beta-TC6 cells [1],20 to 50%
"OCc1cccc(-c2cnc3ccc(-c4cccc(Oc5ccccc5)c4)nn23)c1 [compound 133, [3-[6-(3-phenoxyphenyl)imidazo[1,2-b]pyridazin-3-yl]phenyl]methanol]",Emax,beta-TC6 cells [1],20 to 50%
